Biological target: T1, acetylcholine muscarinic M1 receptor (CHOnfat/hM1 cells) (Homo sapiens, UniProt P11229)
T1 construct: expressed in transfected cells; host or cells: CHOnfat cells (CHO; also called CHOK1/hM1)
T1 sequence (P11229 1-460): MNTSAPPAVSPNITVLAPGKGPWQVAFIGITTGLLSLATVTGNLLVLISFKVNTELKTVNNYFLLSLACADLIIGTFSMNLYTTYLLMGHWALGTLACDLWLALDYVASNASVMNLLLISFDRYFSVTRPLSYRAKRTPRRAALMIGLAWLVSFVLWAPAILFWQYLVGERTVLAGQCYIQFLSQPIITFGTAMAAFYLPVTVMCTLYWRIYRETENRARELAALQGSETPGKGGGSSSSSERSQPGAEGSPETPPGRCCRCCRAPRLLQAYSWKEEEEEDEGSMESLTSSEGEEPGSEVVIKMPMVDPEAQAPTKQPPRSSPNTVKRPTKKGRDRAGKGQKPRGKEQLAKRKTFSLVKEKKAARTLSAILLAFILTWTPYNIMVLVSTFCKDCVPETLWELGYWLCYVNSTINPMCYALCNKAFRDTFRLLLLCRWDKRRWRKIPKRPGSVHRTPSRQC
Experiment: FLIPR intracellular calcium assay for M1 positive allosteric modulator activity (acetylcholine EC20, 3 nM)
Assay type: cell-based
Conditions: 4 min preincubation, then EC20 acetylcholine (3 nM final), FLIPR Ca2+ readout, read-out: IP Value (inflection point)
Procedure: The assay studies the effect of one or several concentrations of test compounds on basal or acetylcholine-stimulated. Ca^2+ levels using FLJPR.
Compounds are prepared and subjected to a preincubation period of 4 min. Thereafter, a single EC20 concentration of acetylcholine is added to each well (3 nM final). The intracellular Ca^2+ level of each sample is measured and compared to an acetylcholine control to determine any modulatory activity.
Cells: CHOnfat/hM1, hM2, hM3 or hM4 cells are plated 24 hr before the assay at a density of 18,000 cells/well (100 μL) in a 384 well plate. CHOnfat/hM1 and CHOnfat/hM3 Growth Medium: 90% DMEM (Hi Glucose); 10% HI FBS; 2 mM L-glutamine; 0.1 mM NEAA; Pen-Strep; and 1 mg/ml Geneticin, are added. For M2Gqi5CHOnfat and M4Gqi5CHOnfat cells, an additional 600 ug/ml hygromycin is added.
Equipment: 384 well plate, 120 μL addition plate; 96-well Whatman 2 ml Uniplate Incubator, 37° C., 5% CO2; Skatron EMBLA-384 Plate Washer; Multimek Pipetting System; Genesis Freedom 200 System; Mosquito System; Temo Nanoliter Pipetting System; and FLIPR^384 Fluorometric Imaging Plate Reader System are used.
Buffers. Assay Buffer: Hanks Balanced Salt Solution, with 20 mM Hepes, 2.5 mM Probenecid (Sigma P-8761) first dissolved in 1 N NaOH, 1% Bovine Serum Albumin (Sigma A-9647). Dye Loading Buffer: Assay Buffer plus 1% Fetal Bovine Serum and Fluo-4AM/Pluronic Acid Mixture. 2 mM Fluo-4AM ester stock in DMSO (Molecular Probes F-14202) Concentration of 2 μM in buffer for a final concentration of 1 μM in Assay. 20% Pluronic Acid Solution stock, with concentration of 0.04% in Buffer, 0.02% in Assay.
65 μL of 2 mM Fluo-4AM are mixed with 130 μL of 20% Pluronic Acid. The resulting solution and 650 μL FBS is added to the assay buffer for a total volume of 65 mL. Positive Controls: 4-Br-A23187: 10 mM in DMSO; final concentration 10 μM. Acetylcholine: 10 mM in water, working stock at both 20 μM and 30 μM in assay buffer, final concentration of 10 μM. This is used to check the maximum stimulation of the CHOK1/hM1 cells, 20 μM (2×) acetylcholine is added in the preincubation part of the assay, and the 30 μM (3×) stock is added in the second part. (EC20) Acetylcholine: 10 mM in water, working stock of 9 nM (3×), and final concentration in assay is 3 nM. This is used after the preincubation with test compounds. Addition of the EC20 Acetylcholine to each well with a test compound will ascertain any modulator activity. 24 wells contain 3 nM Acetylcholine alone as a control.
Determining Activity of Putative Compounds:
Screening Plate Compounds are titrated in 96-well plates (columns 2-11), 100% DMSO, started at a concentration of 15 mM (150× stock concentration), and 3-fold serial dilutions using Genesis Freedom200 System. Four 96-well plates are combined into a 384-well plate using Mosquito Nanoliter Pipetting System by transferring 1 μl of serial diluted compounds to each well, and 1 mM acetylcholine (100× stock concentration) were added as a control. Using Temo, 49 μl assay buffer is added to each well of the 384-well plate right before assay.
In a 96-well Whatman 2 ml Uniplate, 9 nM Acetylcholine (3×) is pipetted into wells corresponding to the screening compounds, and into control wells. The 30 μM acetylcholine control (3×) is added into control wells, and the 3× agonist plate is transferred into a 384 well plate.
Cells are washed three times with 100 μL of buffer, leaving 30 μL of buffer in each well. Using Multimek, 30 μL of Dye Loading Buffer is added into each well and incubated at 37° C., 5% CO2 for up to one hr.
After 60 min, the cells are washed three times with 100 μL of buffer, leaving 30 μL of buffer in each well. The cell plate, screening plate, and agonist addition plates are placed on the platform in the FLIPR and the door closed. A signal test to check background fluorescence and basal fluorescence signal is performed. Laser intensity is adjusted if necessary. […]

Question: For `Cn1ccc2c(Cc3cc4c(c5ccccc35)NCN([C@H]3CCOC[C@@H]3O)C4=O)cccc21` [Example 1, 1,5-Anhydro-2,3-dideoxy-3-{6-[(1-methyl-1H-indol-4-yl)methyl]-4-oxo-1,4-dihydrobenzo[h]quinazolin-3 (2H)-yl}-L-threo-pentitol], which EC50 is on record?
Answer: Its EC50 is 15 nM.

Question: For `CN1CN([C@H]2CCOC[C@@H]2O)C(=O)c2cc(Cc3ccc(Cl)nc3)c3ccccc3c21` [Example 2, 1,5-Anhydro-3-{6-[(6-chloropyridin-3-yl)methyl]-1-methyl-4-oxo-1,4-dihydrobenzo[h]quinazolin-3(2H)-yl}-2,3-dideoxy-L-threo-pentitol], which EC50 is on record?
Answer: The EC50 was 6.3 nM.

Question: With `CSc1ccc(Cc2cc3c(c4ccccc24)NCN([C@H]2CCOC[C@@H]2O)C3=O)cn1` [Example 3, 1,5-Anhydro-2,3-dideoxy-3-[6-{[6-(methylsulfanyl)pyridin-3-yl]methyl}-4-oxo-1,4-dihydrobenzo[h]quinazolin-3(2H)-yl]-L-threo-pentitol] as the compound, how does the EC50 read?
Answer: Its EC50 is 11.5 nM.

Question: Which EC50 does the source give for `Cc1ccc(Cc2cc3c(c4ccccc24)N(C)CN([C@H]2CCCC[C@@H]2O)C3=O)cn1` [Example 4, 3-[(1S,2S)-2-Hydroxycyclohexyl]-1-methyl-6-[(6-methylpyridin-3-yl)methyl]-2,3-dihydrobenzo[h]quinazolin-4(1H)-one] here?
Answer: Its EC50 is 4 nM.

Question: Which EC50 does the source give for `CCCN1CN([C@H]2CCCC[C@@H]2O)C(=O)c2cc(Cc3ccc(C)nc3)c3ccccc3c21` [Example 5, 3-[(1S,2S)-2-Hydroxycyclohexyl]-6-[(6-methylpyridin-3-yl)methyl]-1-propyl-2,3-dihydrobenzo[h]quinazolin-4(1H)-one] here?
Answer: The EC50 was 1170 nM.

Question: With `CN1CN([C@H]2CCOC[C@@H]2O)C(=O)c2cc(Cc3ccnc(CF)c3)c3ccccc3c21` [Example 6, 1,5-Anhydro-2,3-dideoxy-3-[6-{[2-(fluoromethyl)pyridin-4-yl]methyl}-1-methyl-4-oxo-1,4-dihydrobenzo[h]quinazolin-3 (2H)-yl]-L-threo-pentitol] as the compound, how does the EC50 read?
Answer: Its EC50 is 2.7 nM.

Question: With `CN1CN([C@H]2CCOC[C@@H]2O)C(=O)c2cc(Cc3ccnc(C(F)F)c3)c3ccccc3c21` [Example 7, 1,5-anhydro-2,3-dideoxy-3-[6-{[2-(difluoromethyl)pyridin-4-yl]methyl}-1-methyl-4-oxo-1,4-dihydrobenzo[h]quinazolin-3(2H)-yl]-L-threo-pentitol] as the compound, how does the EC50 read?
Answer: The EC50 was 2.6 nM.
